Data: paper PMC10098121, “Amphipathic barbiturates as marine product mimics with cytolytic and immunogenic effects on head and neck squamous cell carcinoma cell lines” (Frontiers in Pharmacology, 2023)

Tested on: UT-SCC-24A cells
Assay: MTS viability assay with bafilomycin A1 and z-VAD-FMK
Type: cell-based, human
Details: 24 h, cisplatin 50 µM, MPM-2:0/MPM-6:0 10 µM, MPM-3:2/MPM-4:2 20 µM
Description: HSC-3 and UT-SCC-24A cells were seeded, 10,000 cells/well, in flat bottom 96-well plates and left to adhere overnight. The supernatants were then removed and replaced by 50 µl of complete DMEM/F-12 ± 100 nM BafA1 (#196000, Sigma-Aldrich, St. Louis, MO, United States) or 50 µM z-VAD-FMK (#219007, Sigma-Aldrich). The plate was then incubated for 1 hour before another 50 µl of complete DMEM/F-12 ± 100 nM BafA1 or 50 µM z-VAD-FMK as well as the MPMs or cisplatin was added. The final concentration of cisplatin was 50 µM and for the MPMs it was 5 or 10 µM for MPM-2:0 and MPM-6:0, and 10 or 20 µM for MPM-3:2 and MPM-4:2, for HSC-3 and UT-SCC-24A cells, respectively. 100 μl of media ± 1% Triton X-100 served as […]. The cells were incubated for 24 h before 20 µl of MTS reagent (CellTiter 96® Aqueous One Solution, Promega, Madison, WI, United States) was added to each well. The plate was then incubated for one more hour before absorbance was measured at 490 nm on a VersaMaxTM Microplate reader (Molecular Devices, San Jose, CA, United States). Viability was calculated using the following formula: %=Abs treated sample−Abs positive control/Abs negative control−Abs positive control x 100
At least three independent experiments were performed, with triplicate wells in each experiment.

Structure (SMILES): N.N.[Cl][Pt][Cl] [Cisplatin, cisplatin, reference compound]
- viability in the presence of BafA1 (100 nM) or z-VAD-FMK (50 µM) (in words): z-VAD-FMK seemed to have some protective effects against cisplatin for both cell lines, while BafA1 had the opposite effect
